Consider 6 compounds from patent US7642367B2, “Diamino-functional chalcones” (Lica Pharmaceuticals A/S, priority 2002, dated 2010).

Series [1] has as its system Plasmodium falciparum 3D7. The series is described as follows: Plasmodium falciparum assay (3H-phenylalanine labelling). The class given is cell-based. As to conditions: for IC50: Plasmodium falciparum 3D7 (Table 2), read-out: IC50.
Series [2] in a line: Determination of solubility in phosphate buffer pH 7.4. The class given is physicochemical. The settings on record: aqueous buffer at pH 7.4. The protocol:
Solubility of the compounds was determined by preparing a saturated solution of compound in 0.3 M phosphate buffer (pH 7.4±0.3) in a brown glass tube. The suspensions were rotated slowly for 24 hours. Aliquots were centrifuged for 10 minutes at 14.000 rpm and supernatants were diluted in 40% (v/v) acetonitrile in water prior to HPLC analysis. Concentrations of analytes were quantified against a standard curve and used as term of solubility.
The HPLC-UV method used for the assessment of solubility is the same as used in the in vitro metabolism assay.

Another series relates to L. major promastigotes. The series is described as follows: Leishmania promastigote assay (3H-thymidine). As to conditions: L. major.

In general, IC50 refers to the point on the concentration scale where inhibition reaches its midpoint. A word on the Solubility: it is the dissolved amount per volume that the medium holds.

≈ marks a conversion by molar mass, not a printed value.

`CN(C)CCN(C)c1cc(Br)cc(/C=C/C(=O)c2ccccc2CN(C)C)c1` [B118, (E)-3-{3-Bromo-5-[(2-dimethylamino-ethyl)-methyl-amino]-phenyl}-1-(2-dimethylaminomethyl-phenyl)-propenone]: the “times more potent than LicA” value in series [1] (Plasmodium falciparum, dose-response curve FIG. 6) came out at 40.

Consider `Cc1ccccc1-c1ccc(N(C)CCCN(C)C)c(/C=C/C(=O)c2ccccc2CN(C)C)c1` [B147, (E)-1-(2-Dimethylaminomethyl-phenyl)-3-{4-[(3-dimethylamino-propyl)-methyl-amino]-2′-methyl-biphenyl-3-yl}-propenone], for which the IC50 in series [1] amounted to 600 nM.

`Cc1ccccc1-c1ccc(N(C)CCN(C)C)c(/C=C/C(=O)c2ccccc2CN(C)C)c1` [B148, (E)-3-{4-[(2-Dimethylamino-ethyl)-methyl-amino]-2′-methyl-biphenyl-3-yl}-1-(2-dimethylaminomethyl-phenyl)-propenone]: the Solubility in series [2] came out at 3300 µg/mL (≈ 7.24 mM).

Take `Cc1ccccc1-c1ccc(N2CCN(C)CC2)c(/C=C/C(=O)c2ccc(O)c(CN(C)C)c2)c1` [B208, (E)-1-(3-Dimethylaminomethyl-4-hydroxy-phenyl)-3-[2′-methyl-4-(4-methyl-piperazin-1-yl)-biphenyl-3-yl]-propenone]: the IC50 in series [1] was 400 nM; with L. major promastigotes, 1100 nM.

For `Cc1ccccc1-c1ccc(N2CCN(C)CC2)c(/C=C/C(=O)c2ccc(O)cc2)c1` [B209, (E)-1-(4-Hydroxy-phenyl)-3-[2′-methyl-4-(4-methyl-piperazin-1-yl)-biphenyl-3-yl]-propenone], the IC50 in series [1] amounted to 300 nM.

Consider `Cc1ccccc1-c1ccc(N2CCN(C)CC2)c(/C=C/C(=O)c2cccc(NC(=O)CN(C)C)c2)c1` [B211, 2-Dimethylamino-N-(3-{3-[2′-methyl-4-(4-methyl-piperazin-1-yl)-biphenyl-3-yl]-(E)-acryloyl}-phenyl)-acetamide], for which the IC50 in series [1] stood at 700 nM.
